Measured values reported in ChEMBL document CHEMBL4043296 (J Med Chem, 2018).

Assays:
[1] = target: T1, Muscarinic acetylcholine receptor M4 (Homo sapiens, UniProt P08173); experiment: Agonist activity at human SP/Myc epitope-tagged muscarinic M4 receptor expressed in HEK293T cells assessed as RLuc8-fused Galphaq activation after 2 mins by BRET assay; format: cell-based, HEK-293T
T1 sequence (P08173 whole entry): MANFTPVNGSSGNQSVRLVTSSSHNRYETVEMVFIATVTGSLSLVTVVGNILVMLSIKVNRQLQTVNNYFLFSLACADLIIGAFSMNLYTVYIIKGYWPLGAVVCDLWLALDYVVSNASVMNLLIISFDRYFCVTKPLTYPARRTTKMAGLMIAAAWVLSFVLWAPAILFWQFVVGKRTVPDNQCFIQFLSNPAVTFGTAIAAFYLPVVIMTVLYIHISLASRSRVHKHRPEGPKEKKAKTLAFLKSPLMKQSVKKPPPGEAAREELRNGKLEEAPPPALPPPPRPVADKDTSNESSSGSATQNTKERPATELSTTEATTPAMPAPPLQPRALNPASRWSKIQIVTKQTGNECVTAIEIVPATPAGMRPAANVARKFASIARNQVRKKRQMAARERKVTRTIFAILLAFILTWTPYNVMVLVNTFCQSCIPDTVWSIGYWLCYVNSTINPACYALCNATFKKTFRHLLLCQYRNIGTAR

MDR1 [2] = experiment: Apparent passive permeability across basolateral to apical side in MDCK2 cells expressing MDR1 at 3 uM after 60 mins by mass spectroscopy; format: ADME, cell-based, Canis lupus familiaris, MDCK-II; details: dog, MDCK-MDR1
[3] = target: T2, Muscarinic acetylcholine receptor M1 (Homo sapiens, UniProt P11229); experiment: Displacement of [3H]NMS from human muscarinic M1 receptor expressed in CHO cell membranes after 2 hrs by liquid scintillation counting method
T2 sequence (P11229 whole entry): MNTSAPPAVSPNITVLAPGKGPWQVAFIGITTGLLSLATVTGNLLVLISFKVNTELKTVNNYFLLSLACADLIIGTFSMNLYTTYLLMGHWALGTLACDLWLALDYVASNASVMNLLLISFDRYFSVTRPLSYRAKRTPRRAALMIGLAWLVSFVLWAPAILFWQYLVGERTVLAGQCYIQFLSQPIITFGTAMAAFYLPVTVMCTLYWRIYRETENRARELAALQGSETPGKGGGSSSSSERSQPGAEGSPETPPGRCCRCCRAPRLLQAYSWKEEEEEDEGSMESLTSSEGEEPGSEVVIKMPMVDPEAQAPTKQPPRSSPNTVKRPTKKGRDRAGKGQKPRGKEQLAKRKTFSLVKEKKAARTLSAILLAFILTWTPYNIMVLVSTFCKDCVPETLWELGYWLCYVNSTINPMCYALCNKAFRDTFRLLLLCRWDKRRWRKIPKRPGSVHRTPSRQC

[4] = target: Beta-2 adrenergic receptor (Homo sapiens, UniProt P07550); experiment: Displacement of [3H]CGP12177 from human recombinant beta2 adrenergic receptor expressed in HEK293 cell membranes after 90 mins by beta counting method
[5] = target: T3, Muscarinic acetylcholine receptor M2 (Homo sapiens, UniProt P08172); experiment: Displacement of [3H]NMS from human muscarinic M2 receptor expressed in CHO cell membranes after 2 hrs by liquid scintillation counting method
T3 sequence (P08172 whole entry): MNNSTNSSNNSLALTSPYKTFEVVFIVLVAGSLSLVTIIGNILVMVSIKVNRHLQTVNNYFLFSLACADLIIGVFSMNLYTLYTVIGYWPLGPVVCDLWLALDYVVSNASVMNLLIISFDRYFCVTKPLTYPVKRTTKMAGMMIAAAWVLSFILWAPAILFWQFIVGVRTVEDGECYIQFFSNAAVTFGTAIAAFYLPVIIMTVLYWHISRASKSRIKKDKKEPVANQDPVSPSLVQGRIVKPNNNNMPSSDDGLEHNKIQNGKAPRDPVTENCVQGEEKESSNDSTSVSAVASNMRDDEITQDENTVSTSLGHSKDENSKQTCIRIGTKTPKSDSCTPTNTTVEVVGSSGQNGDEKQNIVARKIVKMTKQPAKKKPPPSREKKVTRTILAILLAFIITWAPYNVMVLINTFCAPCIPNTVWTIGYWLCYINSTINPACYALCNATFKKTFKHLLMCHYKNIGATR

[6] = target: T2, Muscarinic acetylcholine receptor M1; experiment: (§1) Antagonist activity at human SP/Myc epitope-tagged muscarinic M1 receptor expressed in HEK293T cells assessed as inhibition of carbachol-induced mVenus-fused beta-arrestin2 recruitment preincubated for 15 mins followed by carbachol induction measured after 2 mins by BRET assay; format: cell-based, HEK-293T
[7] = target: T4, Muscarinic acetylcholine receptor M1 (Homo sapiens) (UniProt P11229); experiment: as §1; format: cell-based; details: HEK-293T
T4 sequence (whole entry): T2 sequence (P11229 whole entry)

[8] = target: T4, Muscarinic acetylcholine receptor M1 (Homo sapiens); experiment: Agonist activity at human SP/Myc epitope-tagged muscarinic M1 receptor expressed in HEK293T cells assessed as RLuc8-fused Galphaq activation after 2 mins by BRET assay relative to carbachol; format: cell-based; details: HEK-293T
D(4) dopamine receptor [9] = target: T5, D(4) dopamine receptor (Homo sapiens, UniProt P21917); experiment: Antagonist activity at human SP/Myc epitope-tagged dopamine D4 receptor expressed in HEK293T cells assessed as inhibition of dopamine-induced RLuc8-fused Galphai1 activation preincubated for 15 mins followed by dopamine induction measured after 2 mins by BRET assay; format: cell-based, HEK-293T
T5 sequence (P21917 whole entry): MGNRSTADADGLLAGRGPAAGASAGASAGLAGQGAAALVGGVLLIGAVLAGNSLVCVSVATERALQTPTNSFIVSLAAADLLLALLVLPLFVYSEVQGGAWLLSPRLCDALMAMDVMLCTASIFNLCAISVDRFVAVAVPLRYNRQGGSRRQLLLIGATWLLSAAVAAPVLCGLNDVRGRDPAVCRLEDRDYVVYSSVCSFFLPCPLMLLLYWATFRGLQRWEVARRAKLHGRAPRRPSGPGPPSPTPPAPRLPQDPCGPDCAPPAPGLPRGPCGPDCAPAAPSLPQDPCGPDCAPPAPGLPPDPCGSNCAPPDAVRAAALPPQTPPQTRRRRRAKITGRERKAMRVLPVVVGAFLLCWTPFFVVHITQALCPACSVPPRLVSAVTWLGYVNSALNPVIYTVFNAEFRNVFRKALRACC

MDR1 [10] = experiment: Apparent passive permeability across apical to basolateral side in MDCK2 cells expressing MDR1 at 3 uM after 60 mins by mass spectroscopy; format: ADME, cell-based, Canis lupus familiaris, MDCK-II; details: dog, MDCK-MDR1
[11] = target: Sigma non-opioid intracellular receptor 1 (Cavia porcellus, UniProt Q60492); experiment: Displacement of [3H](+)-pentazocine from sigma1 receptor in Hartley guinea pig brain cortex after 120 mins by scintillation counting method
[12] = target: Sodium-dependent serotonin transporter (Rattus norvegicus, UniProt P31652); experiment: Displacement of [3H]-citalopram from SERT in Sprague-Dawley rat midbrain after 60 mins by scintillation counting method
[13] = target: Sodium-dependent dopamine transporter (Rattus norvegicus, UniProt P23977); experiment: Displacement of [3H]WIN 35,428 from DAT in Sprague-Dawley rat striatum after 120 mins by scintillation counting method
D(4) dopamine receptor [14] = target: T5, D(4) dopamine receptor; experiment: Displacement of [3H]N-methylspiperone from human dopamine D4 receptor expressed in HEK293 cell membranes after 1 hr by scintillation counting method
[15] = target: Muscarinic acetylcholine receptor M3 (Homo sapiens, UniProt P20309); experiment: Displacement of [3H]NMS from human muscarinic M3 receptor expressed in CHO cell membranes after 2 hrs by liquid scintillation counting method
Chain of Muscarinic acetylcholine receptor M3 (P20309 whole entry): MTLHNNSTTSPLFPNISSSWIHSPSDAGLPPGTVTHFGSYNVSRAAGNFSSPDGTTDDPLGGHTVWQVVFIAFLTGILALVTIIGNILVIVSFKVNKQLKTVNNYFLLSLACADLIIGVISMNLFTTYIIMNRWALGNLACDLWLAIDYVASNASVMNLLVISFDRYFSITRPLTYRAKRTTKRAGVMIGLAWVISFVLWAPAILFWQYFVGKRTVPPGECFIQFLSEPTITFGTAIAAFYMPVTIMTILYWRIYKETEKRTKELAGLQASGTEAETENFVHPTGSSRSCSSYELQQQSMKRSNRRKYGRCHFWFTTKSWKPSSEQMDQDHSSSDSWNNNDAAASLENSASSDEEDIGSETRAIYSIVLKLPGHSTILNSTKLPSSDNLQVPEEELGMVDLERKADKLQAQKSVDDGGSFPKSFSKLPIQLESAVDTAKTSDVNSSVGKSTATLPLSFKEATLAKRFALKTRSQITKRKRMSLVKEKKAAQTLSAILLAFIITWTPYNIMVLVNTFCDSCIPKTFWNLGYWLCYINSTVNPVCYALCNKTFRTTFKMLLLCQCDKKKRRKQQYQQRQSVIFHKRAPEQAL

Chain of Sodium-dependent dopamine transporter (P23977 whole entry): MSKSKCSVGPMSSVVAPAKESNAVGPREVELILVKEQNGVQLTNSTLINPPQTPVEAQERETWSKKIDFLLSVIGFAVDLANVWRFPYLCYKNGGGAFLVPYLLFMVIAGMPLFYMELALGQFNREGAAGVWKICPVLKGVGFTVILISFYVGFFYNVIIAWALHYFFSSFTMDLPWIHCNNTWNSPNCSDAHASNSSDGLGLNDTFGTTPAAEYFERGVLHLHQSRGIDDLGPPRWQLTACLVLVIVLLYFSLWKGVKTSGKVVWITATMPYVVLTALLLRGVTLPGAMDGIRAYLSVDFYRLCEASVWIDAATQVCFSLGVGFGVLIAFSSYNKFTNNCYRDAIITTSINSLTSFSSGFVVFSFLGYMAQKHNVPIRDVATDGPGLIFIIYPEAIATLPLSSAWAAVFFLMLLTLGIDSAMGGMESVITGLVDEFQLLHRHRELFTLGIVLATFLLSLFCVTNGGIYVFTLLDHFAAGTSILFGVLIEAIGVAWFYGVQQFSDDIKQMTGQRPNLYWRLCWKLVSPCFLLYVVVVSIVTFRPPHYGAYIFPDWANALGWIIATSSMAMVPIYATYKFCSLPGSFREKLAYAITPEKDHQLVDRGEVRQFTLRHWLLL
Chain of Sodium-dependent serotonin transporter (P31652 whole entry): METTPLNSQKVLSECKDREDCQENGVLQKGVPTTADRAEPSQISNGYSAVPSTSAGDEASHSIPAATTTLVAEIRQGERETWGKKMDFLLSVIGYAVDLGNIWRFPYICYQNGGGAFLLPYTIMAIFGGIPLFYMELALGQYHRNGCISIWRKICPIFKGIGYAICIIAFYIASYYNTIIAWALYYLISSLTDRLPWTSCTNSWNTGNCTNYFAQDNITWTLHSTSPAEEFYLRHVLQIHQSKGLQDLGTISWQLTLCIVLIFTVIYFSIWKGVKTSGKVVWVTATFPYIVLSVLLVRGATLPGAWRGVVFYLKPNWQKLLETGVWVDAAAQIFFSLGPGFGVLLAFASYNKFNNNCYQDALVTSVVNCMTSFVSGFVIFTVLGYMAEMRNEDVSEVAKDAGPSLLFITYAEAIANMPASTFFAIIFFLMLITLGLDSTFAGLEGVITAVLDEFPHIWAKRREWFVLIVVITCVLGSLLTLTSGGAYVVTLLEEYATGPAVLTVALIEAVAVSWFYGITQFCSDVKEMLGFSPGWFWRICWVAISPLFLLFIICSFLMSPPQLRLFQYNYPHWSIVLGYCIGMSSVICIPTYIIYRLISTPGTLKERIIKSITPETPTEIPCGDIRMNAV
Chain of Sigma non-opioid intracellular receptor 1 (Q60492 whole entry): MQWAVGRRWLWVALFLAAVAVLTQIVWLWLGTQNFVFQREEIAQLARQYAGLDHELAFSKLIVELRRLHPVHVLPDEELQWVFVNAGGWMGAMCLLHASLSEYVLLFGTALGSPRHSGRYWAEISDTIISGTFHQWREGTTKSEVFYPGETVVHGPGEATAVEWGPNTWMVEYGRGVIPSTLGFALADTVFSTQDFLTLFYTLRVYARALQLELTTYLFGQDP
Chain of Beta-2 adrenergic receptor (P07550 whole entry): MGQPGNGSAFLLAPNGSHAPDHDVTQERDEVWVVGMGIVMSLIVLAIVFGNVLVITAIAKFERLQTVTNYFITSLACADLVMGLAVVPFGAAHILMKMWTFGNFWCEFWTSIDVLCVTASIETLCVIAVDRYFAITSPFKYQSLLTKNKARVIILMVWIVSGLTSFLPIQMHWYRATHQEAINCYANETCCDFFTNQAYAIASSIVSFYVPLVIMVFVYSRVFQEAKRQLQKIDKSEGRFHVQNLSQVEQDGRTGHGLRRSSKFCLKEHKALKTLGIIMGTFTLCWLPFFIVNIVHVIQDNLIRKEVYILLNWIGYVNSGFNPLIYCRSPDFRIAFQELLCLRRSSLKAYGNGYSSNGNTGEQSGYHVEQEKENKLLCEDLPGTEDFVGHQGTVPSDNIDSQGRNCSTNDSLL

Compound | EC50 [1] | Papp B→A at 1 h, 3 µM (MDR1 [2]) | Ki [3] | Ki [4] | Ki [5] | IC50 [6] | Imax [7] | Emax [8] | IC50 (D(4) dopamine receptor [9]) | Papp A→B at 1 h, 3 µM (MDR1 [10]) | Ki [11] | Ki [12] | Ki [13] | Ki (D(4) dopamine receptor [14]) | Ki [15]
O=C1CCc2ccccc2N1CCCN1CCN(c2ccccc2)CC1 | 589 nM | 19.7 ×10⁻⁶ cm/s | 4270 nM | 35500 nM | 16600 nM | 832 nM | 53% | 42% | 9.77 nM | 16.2 ×10⁻⁶ cm/s | 269 nM | 5010 nM | 8710 nM | 2.88 nM | 17800 nM
O=C1CCc2ccccc2N1CCCN1CCC(Cc2ccccc2)CC1 | 148 nM | 20.9 ×10⁻⁶ cm/s | 363 nM | 9550 nM | 794 nM | 1200 nM | 71% | 25% | 170 nM | 10.9 ×10⁻⁶ cm/s | 10 nM | 46.8 nM | 447 nM | 1.26 nM | 3020 nM
